In patent publication US8134015B2, “Compound inhibiting in vivo phosphorous transport and medicine containing the same” (Kyowa Hakko Kirin Co., Ltd., priority 2003, dated 2012) one finds IC50 and inhibition data, which are given here for 23 compounds.

The target of this assay is T1, rat NaPi-2b (Rattus norvegicus, UniProt Q9JJ09).
T1 construct: expressed in transfected cells; host or cells: Xenopus oocytes injected with cRNA
T1 sequence (Q9JJ09 1-695): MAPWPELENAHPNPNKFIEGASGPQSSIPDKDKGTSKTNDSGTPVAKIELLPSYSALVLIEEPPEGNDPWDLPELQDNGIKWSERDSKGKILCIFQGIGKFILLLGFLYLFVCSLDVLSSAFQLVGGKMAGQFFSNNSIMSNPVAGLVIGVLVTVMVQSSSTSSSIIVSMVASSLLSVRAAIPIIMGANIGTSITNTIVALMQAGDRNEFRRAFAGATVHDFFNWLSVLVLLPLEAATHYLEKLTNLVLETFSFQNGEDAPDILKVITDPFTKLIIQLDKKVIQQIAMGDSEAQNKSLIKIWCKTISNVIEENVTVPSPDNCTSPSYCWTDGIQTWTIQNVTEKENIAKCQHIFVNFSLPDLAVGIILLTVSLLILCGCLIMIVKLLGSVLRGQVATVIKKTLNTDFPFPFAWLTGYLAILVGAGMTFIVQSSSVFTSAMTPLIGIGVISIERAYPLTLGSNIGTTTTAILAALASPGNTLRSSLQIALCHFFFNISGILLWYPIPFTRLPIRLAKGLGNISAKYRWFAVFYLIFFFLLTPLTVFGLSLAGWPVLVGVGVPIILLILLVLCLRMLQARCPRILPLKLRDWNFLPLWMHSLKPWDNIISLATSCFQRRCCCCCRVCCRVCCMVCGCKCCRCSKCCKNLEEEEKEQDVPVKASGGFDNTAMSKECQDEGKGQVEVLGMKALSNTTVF
Put plainly: Sodium-dependent phosphate uptake of Xenopus oocytes which expressed NaPi-2b (32P). It is filed as cell-based. The settings on record: for pIC50: Xenopus oocytes expressing rat NaPi-2b, 32P radioactive phosphorus, read-out: IC50 (phosphate uptake inhibitory activity); for inhibition at 300 µM: phosphate uptake, oocytes expressing rat NaPi-2b, determined from inhibition curve. The method in brief: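 Read-out is 32P phosphate uptake into Xenopus oocytes expressing rat intestinal NaPi-2b (cRNA injection, 2-day culture). Inhibition at 300 μM and 100 μM was derived from a single inhibition curve and given as percent.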

pIC50: −log10 of the molar value.

As to `CCN(CC)CCN(C)Cc1cccc(C(=O)Nc2cc(OCCOC)c(OCCOC)cc2C(=O)N/N=C/c2ccc(C)cc2)c1` [Compound 1029, N-[4,5-Bis-(2-methoxy-ethoxy)-2-(4-methyl-benzylidene-hydrazinocarbonyl)-phenyl]-3-{[(2-diethylamino-ethyl)-methyl-amino]-methyl}-benzamide], the pIC50 was 4.46.

On to `CCN(CC)CCN(C)Cc1cccc(C(=O)Nc2cc(OCCOC)c(OCCOC)cc2C(=O)N/N=C/c2ccc(C)c(C)c2)c1` [Compound 1030, 3-{[(2-Diethylamino-ethyl)-methyl-amino]-methyl}-N-[2-(3,4-dimethyl-benzylidene-hydrazinocarbonyl)-4,5-bis-(2-methoxy-ethoxy)-phenyl]-benzamide], for which the pIC50 was 4.85.

In the case of `CCN(CC)CCN(C)Cc1cccc(C(=O)Nc2cc(OCCOC)c(OCCOC)cc2C(=O)N/N=C/c2ccc(Cl)c(C(F)(F)F)c2)c1` [Compound 1031, N-[2-(4-Chloro-3-trifluoromethyl-benzylidene-hydrazinocarbonyl)-4,5-bis-(2-methoxy-ethoxy)-phenyl]-3-{[(2-diethylamino-ethyl)-methyl-amino]-methyl}-benzamide], the inhibition at 300 µM came out at 58.8%.

`CCN(CC)CCN(C)Cc1cccc(C(=O)Nc2cc(OCCOC)c(OCCOC)cc2C(=O)N/N=C/c2ccc(OC)cc2)c1` [Compound 1032, 3-{[(2-Diethylamino-ethyl)-methyl-amino]-methyl}-N-[2-(4-methoxy-benzylidene-hydrazinocarbonyl)-4,5-bis-(2-methoxy-ethoxy)-phenyl]-benzamide] yielded an inhibition at 300 µM of 40%.

With `CCN(CC)CCN(C)Cc1cccc(C(=O)Nc2ccc(OCCOCCOC)cc2C(=O)N/N=C/c2cccc(F)c2)c1` [Compound 1033, 3-{[(2-Diethylamino-ethyl)-methyl-amino]-methyl}-N-{2-(3-fluoro-benzylidene-hydrazinocarbonyl)-4-[2-(2-methoxy-ethoxy)-ethoxy]-phenyl}-benzamide], the negative logarithm of the IC50 (pIC50) was 4.73.

In the case of `CCN(CC)CCN(C)Cc1cccc(C(=O)Nc2ccc(OCCOCCOC)cc2C(=O)N/N=C/c2ccc(C)cc2)c1` [Compound 1034, 3-{[(2-Diethylamino-ethyl)-methyl-amino]-methyl}-N-[4-[2-(2-methoxy-ethoxy)-ethoxy]-2-(4-methyl-benzylidene-hydrazinocarbonyl)-phenyl]-benzamide], the pIC50 is 4.76.

Consider `CCN(CC)CCN(C)Cc1cccc(C(=O)Nc2ccc(OCCOCCOC)cc2C(=O)N/N=C/c2ccc(C)c(C)c2)c1` [Compound 1035, 3-{[(2-Diethylamino-ethyl)-methyl-amino]-methyl}-N-{2-(3,4-dimethyl-benzylidene-hydrazinocarbonyl)-4-[2-(2-methoxy-ethoxy)-ethoxy]-phenyl}-benzamide], for which the negative logarithm of the IC50 (pIC50) was 5.43.

`CCN(CC)CCN(C)Cc1cccc(C(=O)Nc2ccc(OCCOCCOC)cc2C(=O)N/N=C/c2ccc(Cl)c(C(F)(F)F)c2)c1` [Compound 1036, N-{2-(4-Chloro-3-trifluoromethyl-benzylidene-hydrazinocarbonyl)-4-[2-(2-methoxy-ethoxy)-ethoxy]-phenyl}-3-{[(2-diethylamino-ethyl)-methyl-amino]-methyl}-benzamide]: the negative-log IC50 (pIC50) was 5.82.

As to `CCN(CC)CCN(C)Cc1cccc(C(=O)Nc2ccc(OCCOCCOC)cc2C(=O)N/N=C/c2ccc(OC)cc2)c1` [Compound 1037, 3-{[(2-Diethylamino-ethyl)-methyl-amino]-methyl}-N-{2-(4-methoxy-benzylidene-hydrazinocarbonyl)-4-[2-(2-methoxy-ethoxy)-ethoxy]-phenyl}-benzamide], the pIC50 was 4.41.

As for `CCN(CC)CCN(C)Cc1cccc(C(=O)Nc2ccc(OCCCN3CCCCC3)cc2C(=O)N/N=C/c2ccc(Cl)c(C(F)(F)F)c2)c1` [Compound 1038, N-[2-(4-Chloro-3-trifluoromethyl-benzylidene-hydrazinocarbonyl)-4-(3-piperidin-1-yl-propoxy)-phenyl]-3-{[(2-diethylamino-ethyl)-methyl-amino]-methyl}-benzamide], the negative logarithm of the IC50 (pIC50) was 5.47.

In the case of `O=C(Nc1ccc(OCCCN2CCCCC2)cc1C(=O)N/N=C/c1ccc(Cl)c(C(F)(F)F)c1)c1cccc(CSCCO)c1` [Compound 1039, N-[2-(4-Chloro-3-trifluoromethyl-benzylidene-hydrazinocarbonyl)-4-(3-piperidin-1-yl-propoxy)-phenyl]-3-(2-hydroxy-ethylsulfanylmethyl)-benzamide], the negative-log IC50 (pIC50) is 5.56.

In the case of `COc1ccc(/C=N/NC(=O)c2cc(OCCCN3CCCCC3)ccc2NC(=O)c2cccc(CSCCO)c2)cc1` [Compound 1040, 3-(2-Hydroxy-ethylsulfanylmethyl)-N-[2-(4-methoxy-benzylidene-hydrazinocarbonyl)-4-(3-piperidin-1-yl-propoxy)-phenyl]-benzamide], the pIC50 was 4.28.

On to `Cc1ccc(/C=N/NC(=O)c2cc(OCCCN3CCCCC3)ccc2NC(=O)c2cccc(CSCCO)c2)cc1C` [Compound 1041, N-[2-(3,4-Dimethyl-benzylidene-hydrazinocarbonyl)-4-(3-piperidin-1-yl-propoxy)-phenyl]-3-(2-hydroxy-ethylsulfanylmethyl)-benzamide], for which the pIC50 is 4.99.

Take `Cc1ccc(/C=N/NC(=O)c2cc(OCCN3CCCCC3)ccc2NC(=O)c2cccc(CSCCO)c2)cc1` [Compound 1042, 3-(2-Hydroxy-ethylsulfanylmethyl)-N-[2-(4-methyl-benzylidene-hydrazinocarbonyl)-4-(2-piperidin-1-yl-ethoxy)-phenyl]-benzamide]: the pIC50 is 4.83.

Take `Cc1ccc(/C=N/NC(=O)c2cc(OCCN3CCCCC3)ccc2NC(=O)c2cccc(CSCCO)c2)cc1C` [Compound 1043, N-[2-(3,4-Dimethyl-benzylidene-hydrazinocarbonyl)-4-(2-piperidin-1-yl-ethoxy)-phenyl]-3-(2-hydroxy-ethylsulfanylmethyl)-benzamide]: the negative-log IC50 (pIC50) was 5.08.

Consider `O=C(Nc1ccc(OCCN2CCCCC2)cc1C(=O)N/N=C/c1ccc(Cl)c(C(F)(F)F)c1)c1cccc(CSCCO)c1` [Compound 1044, N-[2-(4-Chloro-3-trifluoromethyl-benzylidene-hydrazinocarbonyl)-4-(2-piperidin-1-yl-ethoxy)-phenyl]-3-(2-hydroxy-ethylsulfanylmethyl)-benzamide], for which the pIC50 is 5.67.

In the case of `COc1ccc(/C=N/NC(=O)c2cc(OCCN3CCCCC3)ccc2NC(=O)c2cccc(CSCCO)c2)cc1` [Compound 1045, 3-(2-Hydroxy-ethylsulfanylmethyl)-N-[2-(4-methoxy-benzylidene-hydrazinocarbonyl)-4-(2-piperidin-1-yl-ethoxy)-phenyl]-benzamide], the pIC50 was 4.88.

In the case of `CCN(CC)CCN(C)Cc1cccc(C(=O)Nc2ccc(OCC3CCCCC3)cc2C(=O)N/N=C/c2cccc(F)c2)c1` [Compound 1046, N-[4-Cyclohexylmethoxy-2-(3-fluoro-benzylidene-hydrazinocarbonyl)-phenyl]-3-{[(2-diethylamino-ethyl)-methyl-amino]-methyl}-benzamide], the negative-log IC50 (pIC50) is greater than 6.00.

Consider `CCN(CC)CCN(C)Cc1cccc(C(=O)Nc2ccc(OCC3CCCCC3)cc2C(=O)N/N=C/c2ccc(C)cc2)c1` [Compound 1047, N-[4-Cyclohexylmethoxy-2-(4-methyl-benzylidene-hydrazinocarbonyl)-phenyl]-3-{[(2-diethylamino-ethyl)-methyl-amino]-methyl}-benzamide], for which the negative-log IC50 (pIC50) was greater than 6.00.

Regarding `CCN(CC)CCN(C)Cc1cccc(C(=O)Nc2ccc(OCC3CCCCC3)cc2C(=O)N/N=C/c2ccc(C)c(C)c2)c1` [Compound 1048, N-[4-Cyclohexylmethoxy-2-(3,4-dimethyl-benzylidene-hydrazinocarbonyl)-phenyl]-3-{[(2-diethylamino-ethyl)-methyl-amino]-methyl}-benzamide], the pIC50 is greater than 6.00.

In the case of `CCN(CC)CCN(C)Cc1cccc(C(=O)Nc2ccc(OCC3CCCCC3)cc2C(=O)N/N=C/c2ccc(Cl)c(C(F)(F)F)c2)c1` [Compound 1049, N-[2-(4-Chloro-3-trifluoromethyl-benzylidene-hydrazinocarbonyl)-4-cyclohexylmethoxy-phenyl]-3-{[(2-diethylamino-ethyl)-methyl-amino]-methyl}-benzamide], the negative logarithm of the IC50 (pIC50) was greater than 6.00.

For `CCN(CC)CCN(C)Cc1cccc(C(=O)Nc2ccc(OCC3CCCCC3)cc2C(=O)N/N=C/c2ccc(OC)cc2)c1` [Compound 1050, N-[4-Cyclohexylmethoxy-2-(4-methoxy-benzylidene-hydrazinocarbonyl)-phenyl]-3-{[(2-diethylamino-ethyl)-methyl-amino]-methyl}-benzamide], the pIC50 was 5.85.

Take `O=C(Nc1ccc(OCCCCF)cc1C(=O)N/N=C/c1cccc(F)c1)c1cccc(CSCCO)c1` [Compound 1051, N-[2-(3-Fluoro-benzylidene-hydrazinocarbonyl)-4-(4-fluoro-butoxy)-phenyl]-3-(2-hydroxy-ethylsulfanylmethyl)-benzamide]: the negative-log IC50 (pIC50) is 5.94.
